From article PMC9807860 (Current Research in Food Science, 2022)
Entries after “also recorded” stand apart in the source; their conditions may differ.

Experiments:
[1] = molecular target: T1, tyrosinase (Agaricus bisporus, UniProt C7FF04); format: biochemical, mushroom
Target sequence in this assay (C7FF04 2-392): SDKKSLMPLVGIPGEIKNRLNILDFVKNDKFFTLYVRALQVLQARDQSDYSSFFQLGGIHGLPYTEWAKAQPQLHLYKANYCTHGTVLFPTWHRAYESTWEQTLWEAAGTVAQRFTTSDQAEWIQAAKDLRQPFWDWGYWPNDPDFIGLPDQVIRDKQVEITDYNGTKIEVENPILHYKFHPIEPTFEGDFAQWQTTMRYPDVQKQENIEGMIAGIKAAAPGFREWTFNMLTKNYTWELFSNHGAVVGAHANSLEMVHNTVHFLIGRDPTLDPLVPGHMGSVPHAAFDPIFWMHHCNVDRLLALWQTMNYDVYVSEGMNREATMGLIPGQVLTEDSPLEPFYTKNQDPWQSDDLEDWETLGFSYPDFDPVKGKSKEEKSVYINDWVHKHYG

[2] = Cell viability assay; format: cell-based; settings: human, HEK-293 cells
[3] = molecular target: T1, tyrosinase; settings: Lineweaver-Burk plots; Vmax decreased, Km unchanged
Target sequence in this assay (C7FF04 2-392): as above

[4] = molecular target: T1, tyrosinase; experiment: ANS-binding fluorescence spectrum quenching; set-up: species or system mushroom; settings: 6j 0–59.41 μM
Target sequence in this assay (C7FF04 1-392): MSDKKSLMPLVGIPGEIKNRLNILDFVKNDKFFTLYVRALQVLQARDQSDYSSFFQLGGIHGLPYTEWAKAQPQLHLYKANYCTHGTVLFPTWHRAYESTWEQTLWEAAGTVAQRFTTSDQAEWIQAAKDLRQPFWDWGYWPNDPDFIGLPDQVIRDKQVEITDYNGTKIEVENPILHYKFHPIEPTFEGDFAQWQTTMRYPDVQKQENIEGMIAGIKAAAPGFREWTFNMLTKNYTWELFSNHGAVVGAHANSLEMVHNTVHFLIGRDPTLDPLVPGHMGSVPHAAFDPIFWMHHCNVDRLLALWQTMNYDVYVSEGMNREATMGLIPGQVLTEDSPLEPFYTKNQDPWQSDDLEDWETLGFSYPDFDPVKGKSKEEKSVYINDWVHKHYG

[5] = molecular target: T1, tyrosinase; experiment: Fluorescence spectrum quenching of tyrosinase; format: binding, mushroom
Target sequence in this assay (C7FF04 2-392): as the sequence (C7FF04 2-392) above

[6] = test system: fresh-cut apple slices; experiment: Anti-browning experiment with fresh-cut apple slices; settings: apple slices dipped 5 min, stored at 4 °C; compared with kojic acid
[7] = plot of Lg[(F0−F)/F] against Lg[Q]

Q: Which “Inhibitory activity against tyrosinase (in words)” value (“Inhibitory activity” below) [1] does the source give for CCOc1cccc(C=O)c1OCc1cc(=O)c(O)co1 [6i] here?
A: Its value is “relatively lower inhibitory activity”.

Q: With O=Cc1ccc(OCc2cc(=O)c(O)co2)cc1F [6j] as the compound, how does the viability at 24 h, 1 µM [2] read?
A: The viability at 24 h, 1 µM was 97.1 ± 2.49%.

Q: What about the viability at 24 h, 4 µM [2] of the same compound?
A: The viability at 24 h, 4 µM was 106 ± 8.83%.

Q: And the viability at 24 h, 16 µM [2]?
A: Its viability at 24 h, 16 µM is 102 ± 10.1%.

Q: What about the viability at 24 h, 64 µM [2] of the same compound?
A: The viability at 24 h, 64 µM was 105 ± 7.27%.

Q: And the viability at 24 h, 256 µM [2]?
A: Its viability at 24 h, 256 µM is 88.6 ± 3.61%.

Q: And the Inhibition type [3]?
A: The Inhibition type was “noncompetitive inhibitor”.

Q: What about the “ANS-binding fluorescence: maximum emission peak wavelength and intensity” value [4] of the same compound?
A: The value was “did not present an obvious change”.

Q: What about the Type of quenching ([5]; Stern-Volmer analysis) of the same compound?
A: Its Type of quenching is “static quenching”.

Q: And the “Ksv (Stern-Volmer quenching constant)” value ([5]; excitation 280 nm, 6j 4.99–24.79 μM)?
A: Its value is 7040 M⁻¹.

Q: What about the “Ka (binding constant)” value [5, 7] of the same compound?
A: Its value is 28900 M⁻¹.

Q: And the “n (binding sites)” value [5, 7]?
A: The value was 1.24.

Q: What about the “Kq (biomolecular quenching constant)” value ([5]; τ0 10^−8 s) of the same compound?
A: Its value is 7.04e+11 M⁻¹ s⁻¹.

Q: And the “Anti-tyrosinase activity relative to the positive control kojic acid” value ([1]; ratio of IC50 values)?
A: The value was “nine folds more active”.

Q: And the “Anti-browning effect (L*, ΔE, visual assessment)” value [6]?
A: Its value is “could delay the enzymatic browning of fresh-cut apples; also recorded: stronger anti-browning effect than kojic acid”.

Q: For COc1cccc(C=O)c1OCc1cc(=O)c(O)co1 [6g], which “Inhibitory activity” value [1] is on record?
A: The value was “relatively lower inhibitory activity”.

Q: For Cc1cc(C=O)cc(C)c1OCc1cc(=O)c(O)co1 [6h], which “Inhibitory activity” value [1] is on record?
A: The value was “relatively lower inhibitory activity”.

Q: With COc1cc(C=O)cc(Br)c1OCc1cc(=O)c(O)co1 [6k] as the compound, how does the “Inhibitory activity” value [1] read?
A: The value was “relatively lower inhibitory activity”.

Q: For COc1cc(C=O)cc(OC)c1OCc1cc(=O)c(O)co1 [6c], which “Inhibitory activity” value [1] is on record?
A: Its value is “relatively lower inhibitory activity”.
